Assays:
C2C12 myotubes [1] = experiment: Phase contrast microscopy of cellular morphology of C2C12 myotubes (diameter, number of myonuclei); type: cell-based, murine; details: for effect on atrophic morphology (myotube diameter, number of myonuclei): modulator(s) before Dexa 100 μM for 48 hours
Method: (§1) C2C12 murine skeletal myoblasts obtained from the American Type Culture Collection (ATCC, Manassas, VA, USA) were cultured in Dulbecco's Modified Eagle's Medium (DMEM) (Sigma, Milan, Italy) with L-glutamine 1%, penicillin/streptomycin 1% (Sigma, Milan, Italy) and Foetal Bovine Serum 10% (FBS) (Sigma, Milan, Italy). For experiments with the myotubes, myoblasts were seeded in 6-wells plates at a concentration of 0.2×10^6 cells/ml. When the cells reached 90-100% confluence (72 hours after seeding), the medium was replaced with the differentiation medium (DM), consisting of DMEM containing antibiotics, glutamine and horse serum (HS) 2% (Sigma, Milan, Italy). The medium was changed every 24-48 hours. The complete cell differentiation was observed after 4-6 days of incubation with HS 2%. The C2C12 skeletal myotubes were incubated for 24-48 hours with the indicated compounds: Sphingosine 1-phosphate (S1P) 2 μM, or different concentration of CYM5520, VPC23019 and/or W146 (in the concentration range between 0.25 and 2 μM). CYM5478, TY52156 and siRNA specific for S1PR3 (NCBI ref NM_010101.4, sequence 5′-[…]-3 ′1118-1139 SEQ ID NO: 1, same size random oligonucleotides were used as negative control SCR-siRNA) were used in some of the experiments. The agonists/antagonists or S1PR3-siRNA or SCR-siRNA were added to the culture medium for 1 hour prior to treatment of the myotubes with dexamethasone (Dexa) 100 μM for 48 hours.
The images shown are representative of n. 5-6 observation frames for each treatment.
The C2C12 myoblasts were let to grow on a coverslip and when confluent they were moved on a differentiated medium for 4 days.
The C2C12 myotubes were grown on a coverslip and, when confluent, were moved onto a medium for the differentiation for 4 days. The cells were treated with the above reported combination of the three S1PR modulators before being incubated with Dexa for 48 hours. Then, the cells were fixed and observed with microscope.

Atrogin-1/MAFbx [2] = experiment: Western Blotting analysis of Atrogin-1/MAFbx protein levels in C2C12 myotubes (atrophy induced by dexamethasone or TNFα); type: cell-based, murine; details: for effect on Dexa-induced expression of Atrogin-1/MAFbx (protein) / expression of Atrogin-1/MAFbx (protein): C2C12 myotubes; for effect on Dexa-induced expression of Atrogin-1/MAFbx (protein): modulator(s) added 1 hour before Dexa 100 μM for 48 hours, 2 μM CYM5520, 1 μM VPC23019, 2 μM W146, 2 μM FTY720; for expression of Atrogin-1/MAFbx (protein): modulator(s) in absence of Dexa, 2 μM CYM5520, 1 μM VPC23019, 2 μM W146
Method: as §1
The Western Blotting analysis was carried out for determining the protein levels of Atrogin-1/MAFbx in C2C12 myotubes. The cells were lysed at 4° C. with RIPA buffer containing TrisHCl 50 mM, pH 7.5, NaCl 120 mM, EDTA 1 mM, EGTA 6 mM, Na4P2O7 15 mM, NaF 20 mM, 1% of cocktail Nonidet and protease inhibitor (1.04 mM AEBSF, 0.08 mM of aprotinin, leupeptin 0.02 mM, bestatin 0.04 mM, pepstatin A […], E-64 […] (Sigma, St. Louis, MO, USA). The lysates were centrifuged at 600× g for 6 min at 4° C., and the proteins concentration was measured by using the Bradford assay (Bio-Rad, Hercules, CA). Aliquots containing 40 μg of proteins were diluted in loading buffer 2× (10% SDS, 50% glycerol, 0.25% bromophenol blue and 0.25 M Tris-HCl, pH 6.8) and boiled at 90° C. for 10 minutes to denature proteins. The samples were subjected to SDS-polyacrylamide 10-12% (SDS-PAGE) gel electrophoresis and to Western blotting on Amersham Hybond p 0.45 PVDF membrane (GE Healthcare, Buckinghamshire, UK). […] After blocking, the membranes were washed in PBST and then incubated overnight with a 1:1000 dilution of the primary antibody comprising rabbit polyclonal antibody with Atrogin-1/MAFbx. After sufficient washings with PBST, the membranes were incubated for 1 hour at room temperature with secondary antibodies conjugated with goat anti-rabbit or goat anti-mouse horseradish peroxidase (Santa Cruz, Texas, USA) at dilution 1:10.000/1:5.000. Following three washings with PBST, the bands corresponding to the immunoreactive proteins were seen by using reagents for the detection of the Western blotting ECL (GE Healthcare, Buckinghamshire, UK); and finally, the membranes were exposed to a high performance chemiluminescence film (GE Healthcare, Buckinghamshire, UK). The identity of the bands on the Western Blot membranes was confirmed by comparing them with a high-precision marker having a known molecular weight (BioRad, Hercules, CA). Densitometric analysis of the bands was performed by using NIH IMAGE J (ImageJ software, Bethesda, MD, USA) and Quantity-One (imaging and analysis software from Bio-Rad Laboratories, Hercules, CA) and the intensity of the band was indicated as a relative percentage (mean and standard deviation from the mean), obtained by calculating the ratio of the specific protein with respect to the β-actin intensity and normalizing it to the control, set to 1.
To test the role of exogenous S1Ps, the terminally differentiated myotubes were treated with the bioactive lipid.

C2C12 myotubes [3] = details: cited from earlier work
Atrogin-1/MAFbx [4] = details: C2C12 myotubes, cited from earlier work
S1PR3 receptor = experiment: Silencing of the expression of the S1PR3 receptor by siRNA in C2C12 myotubes; type: cell-based; details: incubation with siRNA specific for mouse S1PR3
Method: C2C12 murine skeletal myoblasts obtained from the American Type Culture Collection (ATCC, Manassas, VA, USA) were cultured in Dulbecco's Modified Eagle's Medium (DMEM) (Sigma, Milan, Italy) with L-glutamine 1%, penicillin/streptomycin 1% (Sigma, Milan, Italy) and Foetal Bovine Serum 10% (FBS) (Sigma, Milan, Italy). For experiments with the myotubes, myoblasts were seeded in 6-wells plates at a concentration of 0.2×10^6 cells/ml. When the cells reached 90-100% confluence (72 hours after seeding), the medium was replaced with the differentiation medium (DM), consisting of DMEM containing antibiotics, glutamine and horse serum (HS) 2% (Sigma, Milan, Italy). The medium was changed every 24-48 hours. The complete cell differentiation was observed after 4-6 days of incubation with HS 2%. The C2C12 skeletal myotubes were incubated for 24-48 hours with the indicated compounds: Sphingosine 1-phosphate (S1P) 2 μM, or different concentration of CYM5520, VPC23019 and/or W146 (in the concentration range between 0.25 and 2 μM). CYM5478, TY52156 and siRNA specific for S1PR3 (NCBI ref NM_010101.4, sequence 5′-CGGGGUCCUCUGCAAGUGA-3 ′1118-1139 SEQ ID NO: 1, same size random oligonucleotides were used as negative control SCR-siRNA) were used in some of the experiments. […]

[5] = composition of the invention with CYM5520 replaced by the named compound (2 μM), in the presence of Dexa

Compound | effect on atrophic morphology (myotube diameter, number of myonuclei) (C2C12 myotubes [1]; C2C12 myotubes) | effect on Dexa-induced expression of Atrogin-1/MAFbx (protein) (Atrogin-1/MAFbx [2]) | expression of Atrogin-1/MAFbx (protein) (Atrogin-1/MAFbx [2]) | also measured
Cc1cc(C(=O)Cn2cc(C(F)(F)F)ccc2=O)c(C)n1Cc1ccccc1 [CYM5478] | – | – | – | effect on cellular morphology (C2C12 myotubes [1]; [5]): effect comparable with that obtained with the combination of the invention; effect on expression of Atrogin-1/MAFbx (Atrogin-1/MAFbx [2]; [5]): effect comparable with that obtained with the combination of the invention
Cc1cc(C(=O)Cn2cc(C#N)ccc2=O)c(C)n1Cc1ccccc1 [CYM5520] | not significantly reduced | only slightly counteracted the GC effect | no increase was observed | –
CCCCCCCCCCCCC/C=C/[C@@H](O)[C@@H](N)COP(=O)(O)O [Combination S1P, Sphingosine 1-phosphate] | – | – | – | cell morphology and number of nuclei (C2C12 myotubes [3]; Dexa-treated cells in the presence of S1P, state of the art): no significant changes; morphological parameters of the myotubes (diameter and number of myonuclei) (C2C12 myotubes [3]; S1P without Dexa, FIG. 1B, 1C state of the art): slightly change; Atrogin-1/MAFbx level (Atrogin-1/MAFbx [4]; S1P (1 μM) before Dexa 100 μM for 48 hours, FIG. 1 state of the art): reduce the Atrogin-1/MAFbx level, restoring the basal levels; expression of Atrogin-1/MAFbx (Atrogin-1/MAFbx [4]; S1P (1 μM) without Dexa, FIG. 1A state of the art): significantly increase
CCCCCCc1cccc(NC(=O)[C@H](N)CCP(=O)(O)O)c1 [Combination W146] | not significantly reduced | did not counteract the effect of Dexa | did not induce | –
CCCCCCCCc1ccc(CCC(N)(CO)CO)cc1 [FTY720] | – | not affected | – | formation of autophagic vesicles (morphological analysis) (C2C12 myotubes [1]; C2C12 myotubes, FIG. 3C): promote the formation of small autophagic vesicles
CCCCCCCCc1cccc(NC(=O)C(N)COP(=O)(O)O)c1 (stereo not shown) [VPC23019, [2-amino-2-(3-octyl-phenylcarbamoyl)-ethyl] ester of phosphoric acid] | not significantly reduced | did not counteract the effect of Dexa | did not induce | –
S1PR3-siRNA: double-stranded RNA of 21 nucleotides, SEQ ID NO:1, silencing the expression of the S1PR3 receptor (CGGGGUCCUCUGCAAGUGA; combined with other compounds, further chemistry not given here) [Combination S1PR3-siRNA] | – | – | – | reduction of expression of the S1PR3 protein (S1PR3 receptor): 40%; reduction of expression of the S1PR3 protein (S1PR3 receptor; listed as SEQ ID NO:1): about 40%

From patent US12357622B2, “Pharmaceutical composition of S1PR modulators” (UNIVERSITA DEGLI STUDI DI FIRENZE, priority 2019, dated 2025)
